Read-outs that look alike come from different tables or passages of the source.
Assays:
[1] = system: chimeric replicon with 2a-J6CF-derived NS5B; assay: microbe, parasite or virus in culture; assay type: cell-based, HCV genotype 2a; settings: Hepatitis C virus, read-out: 2a chimera 5% FBS EC50
[2] = system: HCV 1a-H77 subgenomic replicon; assay: microbe, parasite or virus in culture; assay type: cell-based, HCV genotype 1a; settings: Hepatitis C virus, stable replicon
[3] = target: T1, HCV NS5B polymerase 1a-H77 (Hepatitis C virus genotype 1a, UniProt P27958); assay: biochemical; set-up: species or system HCV genotype 1a; settings: enzyme, strain 1a H77; read-out: HCV Polymerase Strain 1a H77 IC50
T1 construct: six-histidine tag; made in house; host or cells: E. coli
T1 sequence (P27958 2421-2990): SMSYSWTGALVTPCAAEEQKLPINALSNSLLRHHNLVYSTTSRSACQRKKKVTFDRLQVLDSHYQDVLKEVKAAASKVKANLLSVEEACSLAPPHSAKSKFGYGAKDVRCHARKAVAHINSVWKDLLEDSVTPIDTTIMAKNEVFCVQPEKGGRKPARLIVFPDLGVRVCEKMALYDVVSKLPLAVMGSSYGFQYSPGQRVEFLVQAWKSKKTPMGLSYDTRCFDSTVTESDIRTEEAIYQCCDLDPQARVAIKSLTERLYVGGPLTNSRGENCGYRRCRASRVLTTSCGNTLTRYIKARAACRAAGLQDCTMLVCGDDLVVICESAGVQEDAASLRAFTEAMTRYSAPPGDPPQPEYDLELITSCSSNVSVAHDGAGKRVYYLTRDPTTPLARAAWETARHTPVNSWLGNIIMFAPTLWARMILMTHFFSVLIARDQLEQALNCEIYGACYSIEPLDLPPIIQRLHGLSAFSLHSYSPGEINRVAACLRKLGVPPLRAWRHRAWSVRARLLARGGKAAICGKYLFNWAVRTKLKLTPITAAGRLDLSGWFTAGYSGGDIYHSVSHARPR
Summary of the method: (§1)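 Incorporation of [3H]UTP (0.284 μM), alongside 20 μM each CTP and ATP, into RNA copied from a 5 nM 2.1 kb genotype 1b negative-strand template was measured after 3 h at 30° C using purified His-tagged NS5B truncated at residue 570. Product was spermine-precipitated, filtered and scintillation-counted; nonlinear regression gave IC50.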

[4] = target: T2, HCV NS5B polymerase 1a-H77-C316Y (Hepatitis C virus genotype 1a, UniProt P27958, C2736Y); assay: biochemical; set-up: species or system HCV genotype 1a
T2 construct: six-histidine tag; made in house; host or cells: E. coli
T2 sequence (P27958 2421-2990 C2736Y): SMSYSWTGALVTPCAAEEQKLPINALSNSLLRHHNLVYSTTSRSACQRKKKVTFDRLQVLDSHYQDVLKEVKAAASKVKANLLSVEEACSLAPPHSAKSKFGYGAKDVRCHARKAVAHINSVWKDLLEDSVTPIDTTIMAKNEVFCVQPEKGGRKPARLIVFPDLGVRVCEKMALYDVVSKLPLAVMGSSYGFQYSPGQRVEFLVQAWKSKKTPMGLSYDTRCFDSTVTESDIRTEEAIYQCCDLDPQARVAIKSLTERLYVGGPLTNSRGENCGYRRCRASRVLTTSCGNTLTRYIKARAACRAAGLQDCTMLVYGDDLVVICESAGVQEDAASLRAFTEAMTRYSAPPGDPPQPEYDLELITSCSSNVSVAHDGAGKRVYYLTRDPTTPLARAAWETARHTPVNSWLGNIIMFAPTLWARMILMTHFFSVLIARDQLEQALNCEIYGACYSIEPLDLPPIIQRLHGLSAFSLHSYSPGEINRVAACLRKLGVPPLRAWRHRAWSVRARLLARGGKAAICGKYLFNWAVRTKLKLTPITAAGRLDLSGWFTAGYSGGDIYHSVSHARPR
Summary of the method: as §1

[5] = system: HCV NS5B polymerase 1a-H77-C316Y; assay: biochemical; set-up: species or system HCV genotype 1a; settings: ratio of enzyme IC50s, 1a H77-C316Y / 1a H77
Summary of the method: as §1

[6] = system: HCV 1b-BB7 subgenomic replicon; assay: microbe, parasite or virus in culture; assay type: cell-based, HCV genotype 1b; settings: Hepatitis C virus, stable replicon
[7] = target: T3, HCV NS5B polymerase 1b BK strain (Hepatitis C virus genotype 1b, UniProt P26663); assay: HCV NS5B polymerase enzymatic inhibition assay, strain 1b BK; assay type: biochemical; settings: enzyme, strain 1b BK; read-out: HCV Polymerase Strain 1b BK IC50
T3 construct: six-histidine tag; made in house; host or cells: E. coli
T3 sequence (P26663 2420-2989): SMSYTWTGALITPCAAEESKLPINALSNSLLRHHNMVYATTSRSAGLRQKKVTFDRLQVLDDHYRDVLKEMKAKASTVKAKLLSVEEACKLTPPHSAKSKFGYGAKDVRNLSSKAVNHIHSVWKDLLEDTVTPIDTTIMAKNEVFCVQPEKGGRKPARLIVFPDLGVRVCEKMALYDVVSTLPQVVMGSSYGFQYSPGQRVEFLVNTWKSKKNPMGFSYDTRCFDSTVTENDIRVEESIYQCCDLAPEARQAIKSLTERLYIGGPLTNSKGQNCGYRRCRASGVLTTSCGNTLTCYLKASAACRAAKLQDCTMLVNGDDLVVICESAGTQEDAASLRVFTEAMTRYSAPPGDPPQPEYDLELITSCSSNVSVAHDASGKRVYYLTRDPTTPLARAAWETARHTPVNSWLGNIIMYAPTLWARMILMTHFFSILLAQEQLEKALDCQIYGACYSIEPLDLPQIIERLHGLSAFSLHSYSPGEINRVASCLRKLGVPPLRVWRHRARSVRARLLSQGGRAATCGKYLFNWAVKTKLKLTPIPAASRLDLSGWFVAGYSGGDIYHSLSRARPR
Summary of the method: as §1

[8] = system: HCV 1a-H77 transient subgenomic replicon in Huh-7 derived cell line; assay: microbe, parasite or virus in culture; assay type: cell-based, HCV genotype 1a; settings: Hepatitis C virus, Huh-7; transient replicon, 5% FBS; read-out: Transient Replicon 1a H77 5% FBS EC50
Description: (§2) In addition to the stable replicon inhibition assays, transient replicon assays were performed. Transient replicons are identical to the 1a-H77 and 1a-H77-C316Y constructs, except they lack the Neo gene, making it impossible to establish stable cell lines. A T7 Megascript RNA synthesis kit (Ambion) was used to transcribe the HCV subgenomic RNA. The HCV RNA was then precipitated with lithium chloride according to manufacturer's instructions. The HCV subgenomic replicon RNA was transfected via electroporation into a Huh-7 derived cell line as described (Middleton T, et al. J. Virological Methods 2007; 145(2): 137-145). Transfected cells were diluted and plated in 96 well plates at 5×10^3 cells per well in DMEM. Four hours post-transfection, the wells from one plate were harvested for luciferase measurement. This plate provides a measure of the amount of translatable input RNA, and therefore transfection efficiency. To the wells of the remaining plates, a 3-fold dilution series of test compounds was added in DMSO (0.5% DMSO final concentration), and plates were incubated at 37° C., 5% CO2 in a humidified incubator for 4 days. After this period, the media was removed and the plates were washed with 100 μL phosphate-buffered saline per well. For the luciferase assay, 30 μL of Passive Lysis buffer (Promega) was added to each well, and then the plates were incubated for 15 minutes with rocking to lyse the cells. Luciferin solution (100 μL, Promega) was added to each well, and luciferase activity was measured with a Victor II luminometer (Perkin-Elmer). The EC50 values were calculated using GraphPad Prism 4 software.

[9] = system: chimeric replicon with genotype 4a NS5B; assay: microbe, parasite or virus in culture; assay type: cell-based, HCV genotype 4a; settings: Hepatitis C virus, read-out: 4a chimera 5% FBS EC50
[10] = system: chimeric replicon with genotype 2b NS5B; assay: microbe, parasite or virus in culture; assay type: cell-based, HCV genotype 2b; settings: Hepatitis C virus, read-out: 2b chimera 5% FBS EC50
[11] = system: chimeric replicon with genotype 3a NS5B; assay: microbe, parasite or virus in culture; assay type: cell-based, HCV genotype 3a; settings: Hepatitis C virus, read-out: 3a chimera 5% FBS EC50
[12] = system: HCV 1a-H77-C316Y transient subgenomic replicon in Huh-7 derived cell line; assay: microbe, parasite or virus in culture; assay type: cell-based, HCV genotype 1a; settings: for EC50: Hepatitis C virus, Huh-7, read-out: Transient Replicon 1a H77-C316Y 5% FBS EC50; for Transient Replicon Fold Resistance C316Y/1a: ratio of transient replicon EC50s, C316Y / 1a H77
Description: as §2

[13] = 5% FBS, absence of human plasma, read-out: Stable Replicon 1a H77 5% FBS EC50
[14] = strain 1a H77, 5% FBS + 40% human plasma, read-out: 1a H77 5% FBS + 40% Human Plasma EC50
[15] = strain 1a H77, 5% FBS, no human plasma, read-out: 1a H77 5% FBS EC50
[16] = strain 1a H77, 5% FBS, read-out: 1a H77 5% FBS EC50
[17] = strain 1b BB7, 5% FBS + 40% human plasma, read-out: 1b BB7 5% FBS + 40% Human Plasma EC50
[18] = strain 1b BB7, 5% FBS, no human plasma, read-out: 1b BB7 5% FBS EC50
[19] = strain 1b BB7, 5% FBS, read-out: 1b BB7 5% FBS EC50

Row | Structure (SMILES) | EC50 [1] [nM] | EC50 [2, 13] [nM] | EC50 [2, 14] [nM] | EC50 [2, 15] [nM] | EC50 [2, 16] [nM] | IC50 [3] [nM] | IC50 [4] [nM] | C316Y/1a Fold Resistance [5] [fold] | EC50 [6, 17] [nM] | EC50 [6, 18] [nM] | EC50 [6, 19] [nM] | IC50 [7] [nM] | EC50 [8] [nM] | EC50 [9] [nM] | EC50 [10] [nM] | EC50 [11] [nM] | EC50 [12] [nM] | Transient Replicon Fold Resistance C316Y/1a [12] [fold]
1 | CS(=O)(=O)Nc1cc2oc(-c3ccc(F)cc3)c(-c3ncc[nH]3)c2cc1C1CC1 [Example 1, N-[5-cyclopropyl-2-(4-fluorophenyl)-3-(1H-imidazol-2-yl)-1-benzofuran-6-yl]methanesulfonamide] | 223 | 207 | 4710 | 207 | 207 | 5.9 | 1800 | 304 | 281 | 18.2 | 18.2 | 87 | 192 | 242 | 219 | 13 |  | 
2 | CC(C)CCN(c1cc2oc(-c3ccc(F)cc3)c(C3=NOC(C)N3)c2cc1C1CC1)S(C)(=O)=O (stereo not shown) [Example 14, N-[5-cyclopropyl-2-(4-fluorophenyl)-3-(5-methyl-4,5-dihydro-1,2,4-oxadiazol-3-yl)-1-benzofuran-6-yl]-N-(3-methylbutyl)methanesulfonamide] |  | 24.3 | 805 | 24.3 | 24.3 | 8.5 | 70 | 8 | 1060 | 93.5 | 93.5 | 35 | 28.1 |  |  |  | 152 | 5
3 | CCCN(c1cc2oc(-c3ccc(F)cc3)c(-c3ncc[nH]3)c2cc1C1CC1)S(C)(=O)=O [Example 64, N-[5-cyclopropyl-2-(4-fluorophenyl)-3-(1H-imidazol-2-yl)-1-benzofuran-6-yl]-N-propylmethanesulfonamide] | 57.9 | 24.3 | 267 | 24.3 | 24.3 | 5.3 | 180 | 34 | 110 | 12 | 12 | 29 | 20.2 | 125 | 67.4 | 1.6 |  | 
4 | CC(C)CN(c1cc2oc(-c3ccc(F)cc3)c(-c3ncc[nH]3)c2cc1C1CC1)S(C)(=O)=O [Example 66, N-[5-cyclopropyl-2-(4-fluorophenyl)-3-(1H-imidazol-2-yl)-1-benzofuran-6-yl]-N-isobutylmethanesulfonamide] | 215 | 59.8 | 683 | 59.8 | 59.8 | 5.9 | 901 | 152 | 569 | 56.4 | 56.4 | 70 | 68.9 | 318 | 293 | 83.9 |  | 
5 | CS(=O)(=O)N(CCCC(=O)O)c1cc2oc(-c3ccc(F)cc3)c(C3=NOCCN3)c2cc1C1CC1 [Example 135, 4-{[5-cyclopropyl-3-(5,6-dihydro-4H-1,2,4-oxadiazin-3-yl)-2-(4-fluorophenyl)-1-benzofuran-6-yl](methylsulfonyl)amino}butanoic acid] |  | 969 | 7910 | 969 | 969 | 3.9 | 41 | 11 | 5520 | 783 | 783 | 28 | 372 |  |  |  | 3040 | 8
6 | CS(=O)(=O)N(CCC/C(N)=N/O)c1cc2oc(-c3ccc(F)cc3)c(C3=NOCCN3)c2cc1C1CC1 [Example 181, (1Z)-4-{[5-cyclopropyl-3-(5,6-dihydro-4H-1,2,4-oxadiazin-3-yl)-2-(4-fluorophenyl)-1-benzofuran-6-yl](methylsulfonyl)amino}-N′-hydroxybutanimidamide] | 785 | 55.7 | 611 | 55.7 | 55.7 | 10 | 103 | 10 | 702 | 46 | 46 | 56 |  | 594 | 548 | 108 |  | 
7 | CS(=O)(=O)N(CCCc1noc(=O)[nH]1)c1cc2oc(-c3ccc(F)cc3)c(C3=NOCCN3)c2cc1C1CC1 [Example 182, N-[5-cyclopropyl-3-(5,6-dihydro-4H-1,2,4-oxadiazin-3-yl)-2-(4-fluorophenyl)-1-benzofuran-6-yl]-N-[3-(5-oxo-4,5-dihydro-1,2,4-oxadiazol-3-yl)propyl]methanesulfonamide] | 1000 | 356 | 4230 | 356 | 356 | 7 | 26 | 4 | 5250 | 310 | 310 | 44 |  | > 1000 | 1000 | 661 |  | 
8 | CS(=O)(=O)N(CCCc1noc(=S)[nH]1)c1cc2oc(-c3ccc(F)cc3)c(C3=NOCCN3)c2cc1C1CC1 [Example 183, N-[5-cyclopropyl-3-(5,6-dihydro-4H-1,2,4-oxadiazin-3-yl)-2-(4-fluorophenyl)-1-benzofuran-6-yl]-N-[3-(5-thioxo-4,5-dihydro-1,2,4-oxadiazol-3-yl)propyl]methanesulfonamide] | 1000 | 104 | 2060 | 104 | 104 | 6 | 22 | 4 | 2200 | 88 | 88 | 39 |  | > 1000 | 1000 | 306 |  | 
9 | CS(=O)(=O)N(CCCc1nsc(=O)[nH]1)c1cc2oc(-c3ccc(F)cc3)c(C3=NOCCN3)c2cc1C1CC1 [Example 184, N-[5-cyclopropyl-3-(5,6-dihydro-4H-1,2,4-oxadiazin-3-yl)-2-(4-fluorophenyl)-1-benzofuran-6-yl]-N-[3-(5-oxo-4,5-dihydro-1,2,4-thiadiazol-3-yl)propyl]methanesulfonamide] | 539 | 69.7 | 1870 | 69.7 | 69.7 | 17 | 599 | 35 | 1090 | 28 | 28 | 156 |  | 507 | 353 | 84 |  | 
